Data taken from patent publication US20250093270A1, “Method for Detecting Enzyme Activity and Fluorescent Probe Used in Said Method” (priority 2022, published 2025).

How the values were obtained:
[1] = tested on: acetylcholinesterase; test: Acetylthiocholine coupled assay in a microdevice with the nitrophenol-type probe; type: biochemical; settings: probe 1 μM, acetylthiocholine iodide 1 mM, human plasma 1,000-fold dilution, 90 minutes at 37° C.
Method: The images were acquired after 90 minutes at 37° C.

[2] = Microdevice compatibility: fluorescence image of a microdevice loaded with probe and reacted with a thiol (leakage to oil, adsorption to well); settings: for leakage of the probe enclosed in the well of the microdevice to the oil: sealing oil; for adsorption to the microdevice (inner wall of the reaction vessel / well): reaction vessel formed of CYTOP
Method: (§1) An enzyme stock solution was diluted with an assay buffer containing a fluorescent probe. Next, 40 μL of a reaction mixture was added to the microdevice (Simoa disk; Quanterx Corporation). Next, 80 μL of FC-70 (Sigma-Aldrich) was introduced into the microdevice to wash off the excess reaction mixture and form W/O droplets. A fluorescence signal of the catalytically produced fluorescent dye was measured under a fluorescence microscope, and the enzyme activity in the chamber was measured.
(§2) Fluorescence images were acquired using a 20× dry objective (Plan Apo 20x), an sCMOS camera (ORCA-FusionC14440, Hamamatsu Photonics K.K.), a white LED lighting unit (X-Cite Xylis, Opto Science, Inc.), and a fluorescence microscope (Ti2, Nikon Corporation) equipped with a motorized stage. In the analysis, measurement was performed using a solution containing sSiR (10 μM) as an internal standard and the focus was adjusted using fluorescence. Images were acquired in tile scan mode at full focus.
FIG. 5(a) illustrates a photograph of a state in which each of three kinds of probes containing 2- and 6-position unsubstituted BODIPY and GSH are supplemented with octanol and water. FIG. 5(b) illustrates a fluorescence image of a microdevice equipped with a probe and reacted with a thiol.
FIG. 5(d) illustrates fluorescence images of a microdevice containing human plasma that was loaded with a fluorescent probe (30 μM) in HEPES-buffer (10 mM, pH 7.4, containing 0.1% CHAPS) and incubated at 37° C. for 1.5 hours.
FIG. 7(a) illustrates a photograph (water-octanol distribution experiment) of a state in which each probe and GSH are supplemented with octanol and water. FIG. 7(b) illustrates a fluorescence image of a microdevice equipped with a probe and reacted with a thiol.
(§3) The image was acquired after incubation at 25° C. for 30 minutes.

[3] = Water-octanol distribution experiment (probe and GSH supplemented with octanol and water); type: physicochemical; settings: for distribution to octanol (lipid-soluble solvent) side: water-octanol, with GSH
[4] = Comparison of water solubility by difference in elution time of LC-MS (C18); type: physicochemical; settings: C18, ammonium formate/acetonitrile gradient
Method: FIG. 10 illustrates the analysis of a mixture of five compounds by LC-MS and the extracted ion chromatogram of each compound shown with the display color. The results of the diphosphonic acid form, the dicarboxylic acid form, the disulfonic acid form, the monosulfonic acid form, and the monocarboxylic acid form are shown from the left.
The compound was eluted with a linear gradient of A/B=100/0 at 0.5 minutes and 100/0 to 0/100 at 3 minutes detected at 500 nm (eluent A: H2O containing 10 mM ammonium formate; eluent B: acetonitrile 80%, H2O 20% containing 10 mM ammonium formate).

[5] = tested on: cholinesterase (ChE); settings: blood diluted to 1/10,000; corresponding to a total enzyme concentration of 1 pM
Method: as §1, §2
FIG. 5(c) illustrates a schematic diagram of a coupled assay of an acetylthiocholine system for detection of cholinesterase (ChE) activity.
as §3
The upper view is a fluorescence image of a microdevice equipped with a probe (30 μM), acetylthiocholine (1 mM), and a 1/10,000-fold diluted plasma sample of a healthy human subject. […]

Compound: COc1cc(OC)c(C2=C3C=CC(=O)C=C3[Si](C)(C)c3cc(Oc4ccc(C)cc4[N+](=O)[O-])ccc32)cc1C [2.4-dinitro sTM]
- detection of acetylcholinesterase activity in blood [1]: detected

Compound: 8-(p-nitroolefin)-BODIPY [2- and 6-position unsubstituted BODIPY, reference compound]
- leakage of the probe enclosed in the well of the microdevice to the oil [2]: dissolved in oil
- lipid solubility [3]: high lipid solubility

Compound: 2-sulfo-nitroolefin BODIPY [compound 1]
- leakage of the probe enclosed in the well of the microdevice to the oil [2]: suppressed
- adsorption to the microdevice (inner wall of the reaction vessel / well) [2]: adsorption of the probe to the inner wall of the reaction vessel

Compound: 2,6-sulfo-nitroolefin BODIPY [compound 2]
- leakage of the probe enclosed in the well of the microdevice to the oil [2]: suppressed
- adsorption to the microdevice (inner wall of the reaction vessel / well) [2]: not observed

Compound: 2-CO2H Nitroolefin BODIPY [compound 4]
- adsorption to the microdevice (inner wall of the reaction vessel / well) [2]: the same result as in Example 1
- lipid solubility [3]: particularly highly lipid-soluble
- distribution to octanol (lipid-soluble solvent) side [3]: a large amount of the monocarboxylic acid form was distributed to octanol

Compound: 2,6-diCO2H Nitroolefin BODIPY [compound 9]
- adsorption to the microdevice (inner wall of the reaction vessel / well) [2]: the same result as in Example 1
- distribution to octanol (lipid-soluble solvent) side [3]: partially observed

Compound: 2,6-diPO3H2 Nitroolefin BODIPY [compound 17]
- water solubility evaluated by elution time of LC-MS [4]: greatly improved
- water solubility ([2]; inferred from behaviour in the microdevice): high water solubility
- adsorption to the microdevice (inner wall of the reaction vessel / well) [2]: no adsorption to the microdevice was observed
- λ [5]: 0.03
